Measurements reported in patent US6552014B2, “Methods of inhibiting platelet activation with selective serotonin reuptake inhibitors” (HeartDrug Research, L.L.C., priority 1999, dated 2003).

What was measured:
Type in all cases: cell-based, human
[1] = system: GP IIb/IIIa; test: Whole blood flow cytometry; conditions: for GP IIb/IIIa (mean) log fluorescence intensity / GP IIb/IIIa (peak) log fluorescence intensity: Whole Blood; for GPIIb/IIIa expression (FIG. 1), in words: sertraline 18.1, 44.7 or 85.3 ng/ml, NDMS 31.1, 64.1, 143.0 ng/ml; for GPIIb/IIIa expression (FIG. 7), in words: whole blood, post-coronary angioplasty patient, increasing concentrations
From the text: For ex vivo assessment of the SSRIs effect on a PAM, a level of a PAM can be assessed by flow cytometry by first obtaining a sample that comprises platelets and then contacting the sample with a platelet activation agonist, such as phorbol myristate acetate (PMA), ADP (adenosine diphosphate), thrombin, collagen, and/or TRAP (thrombin receptor activating peptide), under conditions suitable for activation of platelets in the sample. The sample is in contact with the agonist preferably for a period of time effective to maximally activate the platelets. […] Then one contacts or stains the samples with a composition that comprises an anti-PAM antibody e.g., having a fluorescent label, preferably in an amount in excess of that required to bind the PAM expressed on the platelets, under conditions suitable for the formation of labeled complexes between the anti-PAM antibody and activated platelets. Then the formation of the complex in the sample is determined (detected or measured).
Four cc of blood was collected in a tube, containing 2 cc of acid-citrate-dextrose (ACD) (7.3 g citric acid, 22.0 g sodium citrate×2H2O and 24.5 glucose in a total amount of 1000 mL distilled water) and mixed well. The buffer, TBS (10 mM Tris, 0.15 M NaCl, pH 7.4) and the following fluorescein isothiocyanate (FITC) conjugated monoclonal antibodies (PharMingen, San Diego, Calif. USA, and DAKO, Calif., USA) were removed from a refrigerator and allowed to warm at room temperature (RT): CD41 (IIb/IIIa), CD31 (PECAM-1), CD62p (P-selectin), CD51/61 (Vitronectin receptor). Six amber tubes (1.25 ml) were obtained and marked. One Eppendorf tube (1.5 ml) was labeled with “Dill WB”, Patient ID #, Initial and Date. The amber tubes and Eppendorf tube were placed in the rack. […] of TBS buffer was pipetted to the labeled Eppendorf tube. The patient's whole blood tube was inverted gently twice to mix. 50 μl of whole blood was pipetted to the “Dill WB” labeled Eppendorf tube. The Eppendorf tube was capped and the diluted whole blood was mixed by inverting the Eppendorf tube gently two times 50 μl of diluted whole blood was pipetted to each amber tube. 5 μl of appropriate antibody was pipetted to the bottom of the corresponding amber tube. The tubes were covered with aluminum foil and incubated at 4° C. for 30 minutes. After incubation, 400 μl of 2% buffered paraformaldehyde was added. To prepare 2% Paraformaldehyde:Dilute 1 part 10% paraformaldehyde with 4 parts TBS. This solution was stored at 4° C. for up to one week. The amber tubes were closed with a lid tightly and stored in a refrigerator at 4° C. until the flow cytometric analysis. The samples are analyzed on a Becton Dickinson FACScan flow cytometer. The instrument is set up to measure forward light scatter (FSC), and FITC fluorescence. All parameters are collected using four decade logarithmic amplification.
The data in table 1 was obtained using the methods described herein, and in particular, in Examples 1 and 2. The levels of various PAMs were assess from samples of human volunteers. […] Baseline levels of the PAMs were also obtained (without exposure to sertraline or NDMS).

[2] = system: Vitronectin receptor; test: Flow cytometry of platelet antigen expression, platelet rich plasma; conditions: for Vitronectin (mean) log fluorescence intensity / Vitronectin (peak) log fluorescence intensity: PRP
From the text: For ex vivo assessment of the SSRIs effect on a PAM, a level of a PAM can be assessed by flow cytometry by first obtaining a sample that comprises platelets and then contacting the sample with a platelet activation agonist, such as phorbol myristate acetate (PMA), ADP (adenosine diphosphate), thrombin, collagen, and/or TRAP (thrombin receptor activating peptide), under conditions suitable for activation of platelets in the sample. The sample is in contact with the agonist preferably for a period of time effective to maximally activate the platelets. […] Then the formation of the complex in the sample is determined (detected or measured). […] The blood-ACD mixture was centrifuged at 1000 r.p.m. for 10 minutes at room temperature. […] The PRP was then centrifuged at 3000 r.p.m. for 10 minutes. […] All cells were then divided into ten plastic capped tubes. Nine portions of washed platelets were incubated with 5 μfluorescein isothiocyanate (FITC)-conjugated antibodies in the dark at +4 °C for 30 minutes, and one part remained unstained and served as a negative control. […] The instrument was calibrated daily with fluorescence beads (CaliBRITE; Becton Dickinson) and measured FITC-conjugated fluorescence intensity. All parameters were obtained using four decade logarithmic amplification. The data was collected and stored in list mode, and then analyzed using CELLQuest® (version 1.2.2) software. Procedures are described in detail in (Gurbel, P. […] Serebruany, V. […] The levels of various PAMs were assess from samples of human volunteers.

[3] = system: GP IIIa; test: as above; conditions: PRP, desmethylsertraline 64.2 ng/ml
[4] = system: CD9; test: as above; conditions: PRP; healthy volunteers; desmethylsertraline 64.2 ng/ml
[5] = healthy volunteers, sertraline 18.1 ng/ml
[6] = healthy volunteers, sertraline 44.7 ng/ml
[7] = healthy volunteers, sertraline 85.3 ng/ml
[8] = post-angioplasty patient on aspirin, sertraline 18.1 ng/ml
[9] = post-angioplasty patient on aspirin, sertraline 44.7 ng/ml
[10] = post-angioplasty patient on aspirin, sertraline 85.3 ng/ml
[11] = whole blood from a healthy volunteer
[12] = healthy volunteers, desmethylsertraline 31.1 ng/ml
[13] = healthy volunteers, desmethylsertraline 64.2 ng/ml
[14] = healthy volunteers, desmethylsertraline 143 ng/ml
[15] = post-angioplasty patient on aspirin, desmethylsertraline 31.1 ng/ml
[16] = post-angioplasty patient on aspirin, desmethylsertraline 64.2 ng/ml
[17] = post-angioplasty patient on aspirin, desmethylsertraline 143 ng/ml

## CN[C@H]1CC[C@@H](c2ccc(Cl)c(Cl)c2)c2ccccc21 [sertraline]
[1]; [5]
  GP IIb/IIIa (mean) log fluorescence intensity: 479
  GP IIb/IIIa (peak) log fluorescence intensity: 418
[1]; [6]
  GP IIb/IIIa (mean) log fluorescence intensity: 476
  GP IIb/IIIa (peak) log fluorescence intensity: 437
[1]; [7]
  GP IIb/IIIa (mean) log fluorescence intensity: 498
  GP IIb/IIIa (peak) log fluorescence intensity: 437
[1]; [8]
  GP IIb/IIIa (mean) log fluorescence intensity: 252
  GP IIb/IIIa (peak) log fluorescence intensity: 266
[1]; [9]
  GP IIb/IIIa (mean) log fluorescence intensity: 230
  GP IIb/IIIa (peak) log fluorescence intensity: 244
[1]; [10]
  GP IIb/IIIa (mean) log fluorescence intensity: 198
  GP IIb/IIIa (peak) log fluorescence intensity: 217
[1]; [11]
  GPIIb/IIIa expression (FIG. 1), in words: dose dependent decrease in the expression
[1]
  GPIIb/IIIa expression (FIG. 7), in words: striking decreases in expression
[2]; [5]
  Vitronectin (mean) log fluorescence intensity: 810
[2]; [6]
  Vitronectin (mean) log fluorescence intensity: 510
[2]; [7]
  Vitronectin (mean) log fluorescence intensity: 667
[2]; [8]
  Vitronectin (mean) log fluorescence intensity: 405
[2]; [9]
  Vitronectin (mean) log fluorescence intensity: 344
  Vitronectin (peak) log fluorescence intensity: 393
[2]; [10]
  Vitronectin (mean) log fluorescence intensity: 529
  Vitronectin (peak) log fluorescence intensity: 585
[2]; plasma concentration 85.3 ng/ml, equivalent to 200 mg/daily
  surface expression of vitronectin receptor, in words: diminished surface expression

## N[C@H]1CC[C@@H](c2ccc(Cl)c(Cl)c2)c2ccccc21 [Desmethyl sertraline, N-desmethylsertraline]
[1]; [12]
  GP IIb/IIIa (mean) log fluorescence intensity: 346
  GP IIb/IIIa (peak) log fluorescence intensity: 340
[1]; [13]
  GP IIb/IIIa (mean) log fluorescence intensity: 403
  GP IIb/IIIa (peak) log fluorescence intensity: 355
[1]; [14]
  GP IIb/IIIa (mean) log fluorescence intensity: 314
  GP IIb/IIIa (peak) log fluorescence intensity: 264
[1]; [15]
  GP IIb/IIIa (mean) log fluorescence intensity: 277
  GP IIb/IIIa (peak) log fluorescence intensity: 268
[1]; [16]
  GP IIb/IIIa (mean) log fluorescence intensity: 219
  GP IIb/IIIa (peak) log fluorescence intensity: 245
[1]; [17]
  GP IIb/IIIa (mean) log fluorescence intensity: 242
  GP IIb/IIIa (peak) log fluorescence intensity: 232
[1]; [11]
  GPIIb/IIIa expression, NDMS compared with sertraline (FIG. 1): more effectively decreased the expression of GPIIb/IIIa
  GPIIb/IIIa expression (FIG. 1), in words: dose dependent decrease in the expression
[1]
  GPIIb/IIIa expression (FIG. 7), in words: striking decreases in expression
[2]; [12]
  Vitronectin (mean) log fluorescence intensity: 677
  Vitronectin (peak) log fluorescence intensity: 620
[2]; [13]
  Vitronectin (mean) log fluorescence intensity: 623
  Vitronectin (peak) log fluorescence intensity: 508
[2]; [14]
  Vitronectin (mean) log fluorescence intensity: 732
  Vitronectin (peak) log fluorescence intensity: 670
[2]; [15]
  Vitronectin (mean) log fluorescence intensity: 504
  Vitronectin (peak) log fluorescence intensity: 560
[2]; [16]
  Vitronectin (mean) log fluorescence intensity: 380
  Vitronectin (peak) log fluorescence intensity: 425
[2]; [17]
  Vitronectin (mean) log fluorescence intensity: 482
  Vitronectin (peak) log fluorescence intensity: 544
[3]; healthy volunteers
  GP IIIa (peak) log fluorescence intensity: 1144
[3]; post-angioplasty patient on aspirin
  GP IIIa (mean) log fluorescence intensity: 1247
[4]
  CD9 (mean) log fluorescence intensity: 859
